The results in this text go back to patent publication US11717509B2, “Blend containing carbamate compound for prevention, mitigation, or treatment of schizophrenia” (SK BIOPHARMACEUTICALS CO., LTD., priority 2017, dated 2023).

In the assay the test system is animal model in which schizophrenia-like symptoms were induced by treatment with dizocilpine (MK-801). Kind of assay: Social interaction animal behavior test in rats with schizophrenia-like symptoms induced by dizocilpine (MK-801). Particulars: for Social interaction (Mean ± SEM) = total time of active social interactions of sniffing, grooming, licking, mounting and crawling: male Wistar rats in pairs, 5 min observation, dizocilpine 0.1 mg/kg sc 4 h before, aripiprazole 0.003 mg/kg po and/or test compound 3 mg/kg po 1 h before, 20 pairs; for total time average of active social interactions: mean±SEM, aripiprazole 0.003 mg/kg and/or test compound 3 mg/kg po; for total time average of active social interactions / Recovery rate compared to negative control: dizocilpine 0.1 mg/kg sc; for Statistical significance compared to negative control (P < 0.05?) / Statistical significance compared to positive control (P < 0.05?): one-way ANOVA, Dunnett's test; for Statistical significance compared to negative control (P < 0.05?): negative control = dizocilpine only; for Statistical significance compared to negative control (P < 0.05?) / Statistical significance compared to positive control (P < 0.05?) / Recovery rate compared to negative control: aripiprazole 0.003 mg/kg po and/or test compound 3 mg/kg po; for Statistical significance compared to positive control (P < 0.05?): positive control = vehicle group; for Recovery rate compared to negative control: versus dizocilpine-only negative control and vehicle positive control. Format: in vivo, rat (Wistar, male). An excerpt:
The antipsychotic activity of the carbamate compounds of Formula 1 and aripiprazole against schizophrenia can be tested through social interaction animal behavior tests used in drug development for the negative symptoms of schizophrenia (Neill J C, Grayson B, Kiss B, Gyertyán I, Ferguson P, Adham N, Effects of cariprazine, a novel antipsychotic, on cognitive deficit and negative symptoms in a rodent model of schizophrenia symptomatology, Eur Neuropsychopharmacol. 2016 January; 26(1):3-14). […] Dizocilpine (MK-801) is an N-methyl-D-aspartate (NMDA) receptor inhibitor. In the dizocilpine-induced (MK-801-induced) social interaction animal behavior test, schizophrenia-like symptoms can be induced by administration of dizocilpine (Rung J P, Carlsson A, Ryden Markinhuhta K, Carlsson M L, (+)-MK-801 induced social withdrawal in rats; a model for negative symptoms of schizophrenia. Prog Neuropsychopharmacol Biol Psychiatry. 2005 June; 29(5):827-32). Aripiprazole, known as an atypical antipsychotic drug, inhibits schizophrenia-like symptoms in proportion to the dose of dizocilpine (Deiana S, Watanabe A, Yamasaki Y, Amada N, Kikuchi T, Stott C, Riedel G, MK-801-induced deficits in social recognition in rats: reversal by aripiprazole, but not olanzapine, risperidone, or cannabidiol. Behav Pharmacol. 2015 December; 26 (8 Spec No): 748-65).
Male rats (Wistar, 4 weeks old, Orient Bio Co., Ltd.) were purchased, divided into 2 groups in an animal breeding room and acclimatized for more than 1 week on separate shelves. The experimental animals were housed and maintained in accordance with the Laboratory Animal Care Standards of the Institutional Animal Care and Use Committee (IACUC) under conditions of light-and-darkness cycle of 12 hours, a temperature of 22 to 25° C., a relative humidity of 40-60% and free access to food and water.
Thus, an animal model is used in which schizophrenia-like symptoms can be induced by treatment of dizocilpine, an N-methyl-D-aspartate (NMDA) receptor inhibitor.
Dizocilpine (purchased from Sigma) was newly prepared by dissolving it in physiological saline used as a vehicle, and 4 hours before the experiment, a 0.1 mg/kg dose was administered subcutaneously in a volume of 1 ml per 1 kg of body weight of the rat.
Aripiprazole and the test compound were newly prepared by dissolving them in 30% polyethylene glycol 400 (Sigma) used as a vehicle. One hour before the experiment, a 0.003 mg/kg dose of aripiprazole and a 3 mg/kg dose of the test compound were administered orally in a volume of 1 ml per 1 kg of body weight of the rat.
The male rats were placed in the same observation box in pairs, allowing 1:1 interaction, and then the total time of sniffing, grooming, licking, mounting and crawling under or over the other rat which can be considered as active social interactions was measured for 5 minutes, and social interaction was evaluated based on that.
All data are expressed as mean±SEM. Statistical analysis of the total time of active social interactions between groups was performed using the GraphPad Prism ver. 5.04 program, and analyzed by one-way ANOVA (one-way analysis of variance) and Dunnett's multiple comparison test.
The recovery rate was calculated as follows.

In the case of `O=C1CCc2ccc(OCCCCN3CCN(c4cccc(Cl)c4Cl)CC3)cc2N1` [Aripiprazole, 7-{4-[4-(2,3-dichlorophenyl)piperazin-1-yl]butoxy}-3,4-dihydroquinolin-2(1H)-one], the “Social interaction (Mean ± SEM) = total time of active social interactions of sniffing, grooming, licking, mounting and crawling” value came to 57.52 ± 3.04 s; the “total time average of active social interactions” value (shortened to “total time average”) is 57.52 ± 3.04 s; the “Statistical significance compared to negative control (P < 0.05?)” value is on record as “Not significant”; the “Statistical significance compared to positive control (P < 0.05?)” value is “Significant”. For the same compound, the “Recovery rate compared to negative control” value worked out at 23.2%. In addition, under “listed as aripiprazole”, the “Statistical significance compared to negative control (P < 0.05?)” value is reported as “no statistically significant difference”, the “Statistical significance compared to positive control (P < 0.05?)” value was “statistically significant difference” and the “Recovery rate compared to negative control” value worked out at 23.2%.
On to `C[C@]12N[C@H](Cc3ccccc31)c1ccccc12` [Dizocilpine], for which the “Social interaction (Mean ± SEM) = total time of active social interactions of sniffing, grooming, licking, mounting and crawling” value worked out at 53.86 ± 2.90 s; the “total time average” value came out at 53.86 ± 2.90 s; the “Statistical significance compared to positive control (P < 0.05?)” value is “Significant”; the “Recovery rate compared to negative control” value came out at 0.0%.
`NC(=O)O[C@@H](Cn1ncnn1)c1ccccc1Cl` [Test compound, Carbamic acid (R)-1-(2-chlorophenyl)-2-tetrazol-2-yl-ethyl ester]: the “Social interaction (Mean ± SEM) = total time of active social interactions of sniffing, grooming, licking, mounting and crawling” value stood at 56.78 ± 2.19 s; the “total time average” value is 56.78 ± 2.19 s; the “Statistical significance compared to negative control (P < 0.05?)” value is “Not significant”; the “Statistical significance compared to positive control (P < 0.05?)” value is listed as “Significant”. The “Recovery rate compared to negative control” value was found to be 18.5%. Moreover, under “listed as test compound”, the “Statistical significance compared to negative control (P < 0.05?)” value is listed as “no statistically significant difference”, the “Statistical significance compared to positive control (P < 0.05?)” value is “statistically significant difference” and the “Recovery rate compared to negative control” value is listed as 18.5%.
